In US9593305B2, “Differentiation of pluripotent stem cells” (Janssen Biotech, Inc., priority 2008, dated 2017):

System: H1 human embryonic stem cells
Assay: Compounds and growth factors with low dose activin A (Example 9, Table 9)
Format: cell-based
Protocol: Clusters of H1 human embryonic stem cells were grown on reduced growth factor […]™ (Invitrogen; Cat #356231)-coated tissue culture plastic. Cells were passaged using collagenase (Invitrogen; Cat #17104-019) treatment and gentle scraping, washed to remove residual enzyme, and plated with even dispersal at a ratio of 1:1 (surface area) on reduced growth factor […]™-coated 96-well black plates (Packard ViewPlates; PerkinElmer; Cat #6005182) using volumes of 100 μl/well. Cells were allowed to attach as clusters and then recover log phase growth over a 1 to 3 day period, feeding daily with MEF conditioned medium supplemented with 8 ng/ml bFGF (R&D Systems; Cat #233-FB). Plates were maintained at 37° C., 5% CO2 in a humidified box throughout the duration of assay.
Stocks of growth factors purchased from R&D Systems were EGF (Cat #236-EG), FGF4 (Cat #235-F4), PDGF-A (Cat #221-AA), PDGF-D (Cat #1159-SB), PDGF-A/B (Cat #222-AB), VEGF (Cat #293-VE), and GDF-8 (Cat #788-08). Activin A was purchased from PeproTech (Cat #). Muscimol was purchased from Tocris (Cat #0289). All growth factors were solubilized in PBS with 0.1% BSA (Sigma; Cat #A7888) and stored frozen at −80° C. Muscimol was solubilized in 100% DMSO (Sigma; Cat #D2650) and stored frozen at −80° C. The compounds were available as 5 mM stocks in 96-well plate format, solubilized in 100% DMSO and stored at −80° C. The compounds were further diluted to an intermediate concentration of 0.2 mM in 50 mM HEPES (Invitrogen; Cat #15630-080), 20% DMSO and stored at 4° C. All growth factors and inhibitors were prepared in a deep well, 96-well polypropylene plate, diluted to 5× intermediate stocks in DMEM:F12 base medium at the beginning of assay and stored at 4° C.
A secondary screening assay was conducted, testing in triplicate and feeding on alternate days over the four-day assay timeframe. Assays were initiated by aspirating culture medium from each well followed by three washes in PBS to remove residual growth factors and serum. Test volumes of 80 μl per well were added back containing DMEM:F12 base medium (Invitrogen; Cat #11330-032) supplemented with 0.625% FCS (HyClone; Cat #SH30070.03), 25 ng/ml Wnt3a (R&D Systems), 12.5 ng/ml activin A, and 3.125 μM compound plus 20 μl 5× stock of growth factor or small molecule to yield a final concentration of 0.5% FCS, 20 ng/ml Wnt3a, 10 ng/ml activin A, and 2.5 μM compound. All remaining growth factors were tested at a final assay concentration of 50 ng/ml (EGF, FGF4, PDGF-A, PDGF-A/B, VEGF), with the exception of GDF-8 used at 25 ng/ml. Final assay concentration of muscimol was 20 μM. Positive control wells (100 μl/well) contained the same base medium supplemented with 0.5% FCS, 20 ng/ml Wnt3a and 10 ng/ml (low dose) or 100 ng/ml (high dose) activin A. Negative control wells (100 μl/well) contained the same base medium with 0.5% FCS and 20 ng/ml Wnt3a, omitting activin A.
Positive control wells (100 μl/well) contained the same base medium supplemented with 2% FCS and 10 ng/ml or 100 ng/ml activin A, omitting Wnt3a. Negative control wells (100 μl/well) contained the same base medium with 2% FCS, omitting both activin A and Wnt3a.
At the conclusion of four-days of culture, assay plates were washed twice with PBS, fixed with 4% paraformaldehyde (Alexis Biochemical; Cat #ALX-350-011) at room temperature for 20 minutes, then washed three times with PBS and permeabilized with 0.5% Triton X-100 (Sigma; Cat #T8760-2) for 20 minutes at room temperature. Cells were washed again three times with PBS and blocked with 4% chicken serum (Invitrogen; Cat #16110082) in PBS for 30 minutes at room temperature. Primary antibody (goat anti-human SOX17; R&D Systems; cat #AF1924) was diluted 1:100 in 4% chicken serum and added to each well for one hour at room temperature. […]

[1] = 10 ng/ml AA + compound + EGF + FGF4 + PDGF-A + Muscimol + Wnt3a
[2] = 10 ng/ml AA + compound + EGF + FGF4 + PDGF-A + VEGF + PDGF-D + Muscimol + GDF8 + Wnt3a
[3] = 10 ng/ml AA + compound + EGF + FGF4 + PDGF-AB + VEGF + Wnt3a
[4] = 10 ng/ml AA + compound + EGF + FGF4 + PDGF-AB + Wnt3a
[5] = 10 ng/ml AA + compound + EGF + FGF4 + Wnt3a
[6] = 10 ng/ml AA + compound + EGF + Wnt3a
[7] = 10 ng/ml AA + compound + FGF4 + Wnt3a

O=C1CCN2CCN(CC2)Cc2cc(Cl)cc(c2)Nc2ncnc(n2)-c2cncc(c2)CCCN1 [Compound 34, 5-Chloro-1,8,10,12,16,22,26,32-octaazapentacyclo[24.2.2.1˜3.7˜0.1˜9,13˜0.1˜14.18˜]tritriaconta-3(33), 4,6,9(32), 10,12,14(31), 15,17-nonaen-23-one]
Cell Number, % of positive control [1]: 233.85 % of positive control
Cell Number, Average Total Cell Number [1]: 17890
Sox17 Expression, % of positive control [1]: 258.30 % of positive control
Sox17 Expression, Average Total Intensity [1]: 2.88E+08
Cell Number, % of positive control [2]: 240.02 % of positive control
Cell Number, Average Total Cell Number [2]: 18362
Sox17 Expression, % of positive control [2]: 309.74 % of positive control
Sox17 Expression, Average Total Intensity [2]: 3.45E+08
Cell Number, % of positive control [3]: 203.58 % of positive control
Cell Number, Average Total Cell Number [3]: 15574
Sox17 Expression, % of positive control [3]: 232.70 % of positive control
Sox17 Expression, Average Total Intensity [3]: 2.59E+08
Cell Number, % of positive control [4]: 233.65 % of positive control
Cell Number, Average Total Cell Number [4]: 17875
Sox17 Expression, % of positive control [4]: 241.07 % of positive control
Sox17 Expression, Average Total Intensity [4]: 2.68E+08
Cell Number, % of positive control [5]: 185.07 % of positive control
Cell Number, Average Total Cell Number [5]: 14158
Sox17 Expression, % of positive control [5]: 215.35 % of positive control
Sox17 Expression, Average Total Intensity [5]: 2.40E+08
Cell Number, % of positive control [6]: 189.89 % of positive control
Cell Number, Average Total Cell Number [6]: 14527
Sox17 Expression, % of positive control [6]: 204.84 % of positive control
Sox17 Expression, Average Total Intensity [6]: 2.28E+08
Cell Number, % of positive control [7]: 174.15 % of positive control
Cell Number, Average Total Cell Number [7]: 13323
Sox17 Expression, % of positive control [7]: 196.86 % of positive control
Sox17 Expression, Average Total Intensity [7]: 2.19E+08
Cell Number, % of positive control (10 ng/ml AA + compound + Wnt3a): 46.91 % of positive control
Cell Number, Average Total Cell Number (10 ng/ml AA + compound + Wnt3a): 3589
Sox17 Expression, % of positive control (10 ng/ml AA + compound + Wnt3a): 63.08 % of positive control
Sox17 Expression, Average Total Intensity (10 ng/ml AA + compound + Wnt3a): 7.02E+07

CCN1CCCc2cccc(c2)-c2ncnc(n2)Nc2cccc(c2)CCNC(=O)C1 [Compound 29, 18-Ethyl-3,5,7,15,18,28-hexaazatetracyclo[20.3.1.1˜2,6˜0.1˜8,12˜]octacosa-1(26), 2(28), 3,5,8(27), 9,11,22,24-nonaen-16-one]
Cell Number, % of positive control [1]: 76.26 % of positive control
Cell Number, Average Total Cell Number [1]: 4676
Sox17 Expression, % of positive control [1]: 21.11 % of positive control
Sox17 Expression, Average Total Intensity [1]: 2.41E+07
Cell Number, % of positive control [2]: 44.63 % of positive control
Cell Number, Average Total Cell Number [2]: 2737
Sox17 Expression, % of positive control [2]: 21.10 % of positive control
Sox17 Expression, Average Total Intensity [2]: 2.41E+07
Cell Number, % of positive control [3]: 37.23 % of positive control
Cell Number, Average Total Cell Number [3]: 2283
Sox17 Expression, % of positive control [3]: 4.88 % of positive control
Sox17 Expression, Average Total Intensity [3]: 5.59E+06
Cell Number, % of positive control [4]: 64.65 % of positive control
Cell Number, Average Total Cell Number [4]: 3964
Sox17 Expression, % of positive control [4]: 19.89 % of positive control
Sox17 Expression, Average Total Intensity [4]: 2.27E+07
Cell Number, % of positive control [5]: 28.31 % of positive control
Cell Number, Average Total Cell Number [5]: 1736
Sox17 Expression, % of positive control [5]: 1.73 % of positive control
Sox17 Expression, Average Total Intensity [5]: 1.98E+06
Cell Number, % of positive control [6]: 5.96 % of positive control
Cell Number, Average Total Cell Number [6]: 365
Sox17 Expression, % of positive control [6]: −4.25 % of positive control
Sox17 Expression, Average Total Intensity [6]: −4.86E+06
Cell Number, % of positive control [7]: 34.89 % of positive control
Cell Number, Average Total Cell Number [7]: 2139
Sox17 Expression, % of positive control [7]: 6.10 % of positive control
Sox17 Expression, Average Total Intensity [7]: 6.98E+06
Cell Number, % of positive control (10 ng/ml AA + compound + Wnt3a): 34.09 % of positive control
Cell Number, Average Total Cell Number (10 ng/ml AA + compound + Wnt3a): 2090
Sox17 Expression, % of positive control (10 ng/ml AA + compound + Wnt3a): 4.28 % of positive control
Sox17 Expression, Average Total Intensity (10 ng/ml AA + compound + Wnt3a): 4.89E+06

CN1CCC(=O)NCCCNc2ncccc2-c2ncnc(n2)Nc2cccc(c2)C1 [Compound 39, 9-Methyl-2,3,4,5,7,8,9,10-octahydro-16H-17,21-(azeno)-11,15-(metheno)pyrido[3,2-g][1,3,5,9,13,17]hexaazacyclotricosin-6(1H)-one]
Cell Number, % of positive control [1]: 37.64 % of positive control
Cell Number, Average Total Cell Number [1]: 2879
Sox17 Expression, % of positive control [1]: 3.24 % of positive control
Sox17 Expression, Average Total Intensity [1]: 3.61E+06
Cell Number, % of positive control [2]: 75.00 % of positive control
Cell Number, Average Total Cell Number [2]: 5738
Sox17 Expression, % of positive control [2]: 19.24 % of positive control
Sox17 Expression, Average Total Intensity [2]: 2.14E+07
Cell Number, % of positive control [3]: 33.08 % of positive control
Cell Number, Average Total Cell Number [3]: 2531
Sox17 Expression, % of positive control [3]: 2.53 % of positive control
Sox17 Expression, Average Total Intensity [3]: 2.82E+06
Cell Number, % of positive control [4]: 39.07 % of positive control
Cell Number, Average Total Cell Number [4]: 2989
Sox17 Expression, % of positive control [4]: −0.02 % of positive control
Sox17 Expression, Average Total Intensity [4]: −1.78E+04
Cell Number, % of positive control [5]: 9.59 % of positive control
Cell Number, Average Total Cell Number [5]: 734
Sox17 Expression, % of positive control [5]: −3.53 % of positive control
Sox17 Expression, Average Total Intensity [5]: −3.93E+06
Cell Number, % of positive control [6]: 2.75 % of positive control
Cell Number, Average Total Cell Number [6]: 211
Sox17 Expression, % of positive control [6]: −4.08 % of positive control
Sox17 Expression, Average Total Intensity [6]: −4.54E+06
Cell Number, % of positive control [7]: 6.81 % of positive control
Cell Number, Average Total Cell Number [7]: 521
Sox17 Expression, % of positive control [7]: −4.01 % of positive control
Sox17 Expression, Average Total Intensity [7]: −4.46E+06
Cell Number, % of positive control (10 ng/ml AA + compound + Wnt3a): 6.78 % of positive control
Cell Number, Average Total Cell Number (10 ng/ml AA + compound + Wnt3a): 518
Sox17 Expression, % of positive control (10 ng/ml AA + compound + Wnt3a): −2.13 % of positive control
Sox17 Expression, Average Total Intensity (10 ng/ml AA + compound + Wnt3a): −2.37E+06
